Values joined by “and” are separate entries in the source; they are usually repeats but may differ in a detail not shown here. Equal values may be shown once. Toxic doses and inconclusive results are not listed.
Test system: L1210 leukemia ip in BDF1 mice, survival T/C
Assay: NCI In Vivo Anticancer Drug Screen. Data for tumor model L1210 Leukemia (intraperitoneal) in B6D2F1 (BDF1) mice
Conditions: endpoint: mean survival time, higher = longer survival
Summary of the method: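 Tumor cells were implanted, animals were treated, and survival was followed. The result divides the treated measurement by the vehicle-control measurement.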

[1] = dose: 100.0 mg/kg/injection, schedule: Q04DX002 (ip), vehicle: saline with Tween-80
[2] = dose: 200.0 mg/kg/injection, schedule: Q04DX002 (ip), vehicle: saline with Tween-80
[3] = dose: 100.0 mg/kg/injection, schedule: Q04DX003 (ip), vehicle: Klucel (hydroxypropylcellulose) (HPC)
[4] = dose: 200.0 mg/kg/injection, schedule: Q04DX003 (ip), vehicle: Klucel (hydroxypropylcellulose) (HPC)
[5] = dose: 100.0 mg/kg/injection, schedule: Q01DX009 (ip), vehicle: saline with Tween-80
[6] = dose: 200.0 mg/kg/injection, schedule: Q01DX009 (ip), vehicle: saline with Tween-80
[7] = dose: 100.0 mg/kg/injection, schedule: Q04DX003 (ip), vehicle: saline with Tween-80
[8] = dose: 200.0 mg/kg/injection, schedule: Q04DX003 (ip), vehicle: saline with Tween-80
[9] = dose: 400.0 mg/kg/injection, schedule: Q04DX003 (ip), vehicle: saline with Tween-80
[10] = dose: 400.0 mg/kg/injection, schedule: Q04DX003 (ip), vehicle: Klucel (hydroxypropylcellulose) (HPC)

CCSC(SCC)C(OC(C)=O)C(OC(C)=O)C(OC(C)=O)C(COC(c1ccccc1)(c1ccccc1)c1ccccc1)OC(C)=O (centres undefined)
T/C [1]: 101 % of control | T/C [2]: 89 % of control

O=C(Nc1ccc(C2=NCCN2)cc1)C1CCC(C(=O)Nc2ccc(C3=NCCN3)cc2)CC1 (centres undefined)
T/C (dose: 0.46 mg/kg/injection, schedule: Q01DX Z (ip), vehicle: carboxymethylcellulose (CMC)): 103 % of control | T/C (dose: 0.93 mg/kg/injection, schedule: Q01DX Z (ip), vehicle: carboxymethylcellulose (CMC)): 112 % of control | T/C (dose: 3.75 mg/kg/injection, schedule: Q01DX Z (ip), vehicle: carboxymethylcellulose (CMC)): 152 % of control | T/C (dose: 11.0 mg/kg/injection, schedule: Q01DX015 (ip), vehicle: methylcellulose (MC)): 197 % of control | T/C (dose: 15.0 mg/kg/injection, schedule: Q01DX Z (ip), vehicle: carboxymethylcellulose (CMC)): 227 % of control | T/C (dose: 22.0 mg/kg/injection, schedule: Q01DX015 (ip), vehicle: methylcellulose (MC)): 262 % of control | T/C (dose: 30.0 mg/kg/injection, schedule: Q01DX Z (ip), vehicle: carboxymethylcellulose (CMC)): 250 % of control | T/C (dose: 31.0 mg/kg/injection, schedule: Q01DX015 (ip), vehicle: methylcellulose (MC)): 284 % of control | T/C (dose: 45.0 mg/kg/injection, schedule: Q01DX015 (ip), vehicle: methylcellulose (MC)): 335 % of control | T/C (dose: 60.0 mg/kg/injection, schedule: Q01DX Z (ip), vehicle: carboxymethylcellulose (CMC)): 173 % of control | T/C (dose: 62.0 mg/kg/injection, schedule: Q01DX015 (ip), vehicle: methylcellulose (MC)): 229 % of control | T/C (dose: 125.0 mg/kg/injection, schedule: Q01DX015 (ip), vehicle: methylcellulose (MC)): 201 % of control | T/C (dose: 125.0 mg/kg/injection, schedule: Q01DX Z (ip), vehicle: carboxymethylcellulose (CMC)): 102 % of control | T/C (dose: 250.0 mg/kg/injection, schedule: Q01DX001 (ip), vehicle: methylcellulose (MC)): 178 % of control | T/C (dose: 250.0 mg/kg/injection, schedule: Q01DX015 (ip), vehicle: methylcellulose (MC)): 160 % of control | T/C (dose: 750.0 mg/kg/injection, schedule: Q01DX001 (ip), vehicle: methylcellulose (MC)): 243 % of control | T/C (dose: 1500.0 mg/kg/injection, schedule: Q01DX001 (ip), vehicle: methylcellulose (MC)): 202 % of control and 239 % of control and 253 % of control

OC(c1cc(Nc2ccc(Cl)cc2)nc2ccccc12)C1CCCCN1 (centres undefined)
T/C [3]: 95 % of control | T/C [4]: 101 % of control

O=C1OC2C(Br)CC(Br)CC2C=C1c1ccc([N+](=O)[O-])cc1 (centres undefined)
T/C [1]: 90 % of control | T/C [2]: 90 % of control | T/C (dose: 400.0 mg/kg/injection, schedule: Q04DX002 (ip), vehicle: saline with Tween-80): 93 % of control

CCCCCCCCCCCCCCCCCCCCCCOC(=O)CCC(=O)OCCCCCCCCCCCCCCCCCCCCCC
T/C (dose: 100.0 mg/kg/injection, schedule: Q01DX009 (ip), vehicle: gum acacia): 86 % of control | T/C (dose: 100.0 mg/kg/injection, schedule: Q04DX003 (ip), vehicle: gum acacia): 95 % of control | T/C (dose: 200.0 mg/kg/injection, schedule: Q01DX009 (ip), vehicle: gum acacia): 86 % of control | T/C (dose: 200.0 mg/kg/injection, schedule: Q04DX003 (ip), vehicle: gum acacia): 92 % of control | T/C (dose: 400.0 mg/kg/injection, schedule: Q04DX003 (ip), vehicle: gum acacia): 92 % of control

COc1cc(C=O)ccc1OC(=O)Nc1ccc(Cl)cc1C(F)(F)F
T/C (dose: 50.0 mg/kg/injection, schedule: Q01DX009 (ip), vehicle: saline with Tween-80): 89 % of control | T/C [5]: 100 % of control | T/C [6]: 96 % of control

CC1(C2CCN(Cc3ccccc3)CC2)OCCO1
T/C (dose: 37.5 mg/kg/injection, schedule: Q04DX003 (ip), vehicle: saline): 100 % of control | T/C (dose: 75.0 mg/kg/injection, schedule: Q04DX003 (ip), vehicle: saline): 100 % of control | T/C (dose: 150.0 mg/kg/injection, schedule: Q04DX003 (ip), vehicle: saline): 101 % of control

COc1ccc(/C=C/C(=O)c2ccc(OC)c(OC)c2)cc1OC
T/C [5]: 100 % of control | T/C [6]: 105 % of control | T/C (dose: 400.0 mg/kg/injection, schedule: Q01DX009 (ip), vehicle: saline with Tween-80): 102 % of control

COC(=O)C1=CNC=C(C(=O)OC)C1c1ccccc1
T/C [7]: 96 % of control | T/C [8]: 96 % of control | T/C [9]: 98 % of control

CCCC(C)C(=O)Nc1cccc(OC(=O)NC(C)C)c1 (centres undefined)
T/C [7]: 89 % of control | T/C [8]: 87 % of control | T/C [9]: 92 % of control

Clc1ccccc1C=C1c2ccccc2-c2ccccc21
T/C [3]: 103 % of control | T/C [4]: 100 % of control | T/C [10]: 96 % of control

CC(C)(O)C(O)(c1ccccc1)c1ccccc1
T/C (dose: 100.0 mg/kg/injection, schedule: Q01DX001 (ip), vehicle: saline): 103 % of control | T/C (dose: 200.0 mg/kg/injection, schedule: Q01DX001 (ip), vehicle: saline): 97 % of control | T/C (dose: 400.0 mg/kg/injection, schedule: Q01DX001 (ip), vehicle: saline): 95 % of control

O=C(O)CC(c1ccccc1)C(CC(=O)O)c1ccccc1 (centres undefined)
T/C [3]: 91 % of control | T/C [4]: 95 % of control | T/C [10]: 96 % of control

OCCSC1=NCCN1
T/C (dose: 100.0 mg/kg/injection, schedule: Q01DX001 (ip), vehicle: carboxymethylcellulose (CMC)): 97 % of control | T/C (dose: 100.0 mg/kg/injection, schedule: Q04DX003 (ip), vehicle: saline): 109 % of control | T/C (dose: 200.0 mg/kg/injection, schedule: Q01DX001 (ip), vehicle: carboxymethylcellulose (CMC)): 100 % of control | T/C (dose: 200.0 mg/kg/injection, schedule: Q04DX003 (ip), vehicle: saline): 103 % of control | T/C (dose: 400.0 mg/kg/injection, schedule: Q01DX001 (ip), vehicle: carboxymethylcellulose (CMC)): 94 % of control

O=C(O)/C=C/c1cccc(O)c1
T/C (dose: 100.0 mg/kg/injection, schedule: Q01DX009 (ip), vehicle: Klucel (hydroxypropylcellulose) (HPC)): 98 % of control | T/C [3]: 92 % of control | T/C (dose: 200.0 mg/kg/injection, schedule: Q01DX009 (ip), vehicle: Klucel (hydroxypropylcellulose) (HPC)): 102 % of control | T/C [4]: 97 % of control | T/C (dose: 400.0 mg/kg/injection, schedule: Q01DX009 (ip), vehicle: Klucel (hydroxypropylcellulose) (HPC)): 97 % of control | T/C [10]: 98 % of control

CC(=O)OC1CCC2(C)C(=CC(=O)C3C4CCC(C(C)C)C4CCC32)C1 (centres undefined)
T/C (dose: 75.0 mg/kg/injection, schedule: Q01DX009 (sc), vehicle: steriod suspending solution): 95 % of control | T/C (dose: 75.0 mg/kg/injection, schedule: Q04DX003 (sc), vehicle: steriod suspending solution): 94 % of control | T/C (dose: 150.0 mg/kg/injection, schedule: Q01DX009 (sc), vehicle: steriod suspending solution): 109 % of control | T/C (dose: 150.0 mg/kg/injection, schedule: Q04DX003 (sc), vehicle: steriod suspending solution): 98 % of control | T/C (dose: 300.0 mg/kg/injection, schedule: Q01DX009 (sc), vehicle: steriod suspending solution): 108 % of control | T/C (dose: 300.0 mg/kg/injection, schedule: Q04DX003 (sc), vehicle: steriod suspending solution): 94 % of control

CC(=O)N1CC(=O)NC1=S
T/C (dose: 100.0 mg/kg/injection, schedule: Q01DX001 (ip), vehicle: Klucel (hydroxypropylcellulose) (HPC)): 115 % of control | T/C (dose: 200.0 mg/kg/injection, schedule: Q01DX001 (ip), vehicle: Klucel (hydroxypropylcellulose) (HPC)): 107 % of control | T/C (dose: 400.0 mg/kg/injection, schedule: Q01DX001 (ip), vehicle: Klucel (hydroxypropylcellulose) (HPC)): 95 % of control

O=C1OC(=O)C2C3CC(C12)C1C2C=CC(C2)C31 (centres undefined)
T/C [7]: 91 % of control | T/C [8]: 95 % of control | T/C [9]: 103 % of control

NC(=O)C1C2C=CC(C2)C1C(N)=O (centres undefined)
T/C [7]: 96 % of control | T/C [8]: 91 % of control | T/C [9]: 98 % of control
